{"source": "patent US20100226900A1", "about": "“PREVENTION AND TREATMENT OF OSTEOCHONDROSIS IN ANIMALS AND HUMANS” (U.S. Borax Inc., priority 2005, published 2010)", "key": {"sows and piglets": {"system": "sows and piglets", "type": "in vivo", "procedure": "Boron was added to the diet of sows at 1 mg/kg body weight as boric acid. […] Among a group of 95 piglets the birth to weaning mortality was 2 piglets. The usual mortality for this farm was about 5 to 7%. These piglets remained on boron 50 ppm plus ascorbate 125 ppm. One pig was euthanized and examined at a weight of about 85 pounds. […] All bones of the appendicular skeleton were sectioned on the band saw."}, "[1]": {"system": "gestating and lactating sows and their piglets", "test": "Reproductive effects in sows: observation and preliminary pilot study (Example 3)", "experimental": "Sows were fed a standard corn-soy diet. Half of the sows received an oral administration of a boron supplement to provide 1 mg boron per kg body weight."}, "[2]": {"system": "pigs (boron crosslinks, osteochondrosis)", "experimental": "The pigs were evaluated for lameness daily and euthanatized on day 13 and the joints and other organs were examined."}, "[3]": {"system": "growing swine (osteochondrosis)", "test": "Boron supplementation and OC-associated lameness in growing swine (Example 1)", "type": "in vivo, pig", "procedure": "The basal diet consisted of commercial corn-soy diet containing 10 ppm boron.\nTest diet group B was fed a basal diet plus 25 mg/kg boron as sodium borate decahydrate (borax). Test diet group A was fed a basal diet plus 25 mg/kg boron as sodium borate decahydrate (borax) and 250 mg/kg ascorbic acid.\nPigs were weighed at the beginning of the study, 4 weeks later and every 3 weeks until the end of the study. Animals were scored for soundness on a 5-point scale at each weighing. (Five-point scale: 1=no soundness defects; 2=minor soundness issues but still sound enough for retention as breeding animal; 3=not sound enough for retention for breeding but still marketable; 4=unsound, likely to be rejected at slaughter; 5=severely lame, requiring euthanasia for humane reasons.) Grading was done by the caretaker and the investigator at all weighing times. An experienced independent treatment-blind rater also evaluated the soundness of each animal and the ratings he provided were compared with the ratings of the caretaker and investigator by use of Cohen's Kappa test.\nThe animals were housed in a modern curtain sided barn with deep straw bedding, with ad libitum access to feed and water. Waterers and feeders were on a concrete pad but the remainder of the flooring was deep straw over a ground limestone and sand base. Floor space allowances exceeded the recommendations of the Guide for the Care and Use of Agricultural Animals in Agricultural Research and Teaching, First Revised Edition, 1999. Federation of Animal Science Societies. Savoy, Ill.\nThe basal diet (no boron supplemented) was analysed and found to contain boron at the rate of 10 ppm which is typical for a corn-soybean meal based diet.\nAt the end of the study the pigs were transported to a laboratory where they were euthanized and necropsied. Six pigs in each of group B and group A were put on the control diet for 7 days at the end of the study.\nAt necropsy, samples of liver, heart, kidney, fat, skeletal muscle, proximal tibia, blood, and the rostral snout were retained and frozen at −40° C. prior to chemical analysis. All joints of the axial skeleton were evaluated for the presence of gross lesions of osteochondrosis and graded on a 5 point scale. (5-point scale: 1=no gross abnormalities; 2=minor imperfections in articular conformation or articular reddening present but no cartilage erosions; 3=cartilage intact but surface irregularities of the cartilage are present; 4=fissuring or erosion of articular cartilage is obvious; 5=full thickness cartilage lesions or cartilage flaps, osteochondritis dissecans obviously present).\nThe proximal femur (femoral head) and articular surfaces and growth plates associated with the stifle, hock, shoulder, elbow and carpus were sectioned with a band saw and approx. 0.5 to 1.0 cm sections fixed in formalin. Bone sections were decalcified with formic acid/sodium citrate, embedded in paraffin and sectioned at 5 microns. Sections were deparaffinized according to standard procedures. Two sections were made from each joint and growth plate and stained with either hematoxylin/eosin (H&E) or with toluidine blue (pH 4)/fast green for evaluation of the articular cartilage, subchondral bone and growth plate.\nMean joint lesion scores, growth rate and soundness scores by treatment and by factors boron and ascorbate were compared using an analysis of variance and t-test as appropriate. Soundness scores were dichotomised into binary categorical variables for lameness (soundness score>2) and for absence of defects (soundness<2), and the binary variables analysed by chi-square and logistic regression.\nTissue specimens stained with H&E were examined microscopically for the presence of lesions of osteochondrosis. Toluidine Blue staining allowed assessment of retention or loss of proteoglycan from the extracellular matrix (ECM) of the cartilage. Each tissue section was scored by a treatment-blind board-certified pathologist. […]"}, "crossbred pigs": {"system": "crossbred pigs", "test": "28-day feeding trial: phosphorus digestibility and excretion, feed conversion (Example 4)", "type": "in vivo, pig", "procedure": "Pigs were randomly allocated to 24 pens of 6 pigs per pen in a thermoneutral controlled environment barn with steel grid flooring. Each pen was equipped with a single-hole feeder. Water was available free-choice from a nipple drinker. […] Feces were collected on the last 3 days of the study from each pen and a pooled aliquot was dried and submitted for chemical analysis. Yttrium oxide was added to the diet at 0.05% and served as a marker for phosphorus digestibility. Pig growth and feed consumption was measured at the end of the study with the pen as the experimental unit. Data was analyzed for effects of boron and calcium by univariate and multivariate analysis of variance and t-tests."}, "sows and their litters": {"system": "sows and their litters", "test": "Sow and litter trial in a commercial swine operation during a PRRSV outbreak (Example 3)", "type": "in vivo, pig", "settings": "sows given oral 1 mg boron per pound BW per day", "procedure": "To test the effect of boron on sows and their litters, a trial was established in a large commercial swine operation during an outbreak of porcine viral reproductive and respiratory disease (PRRSV). Boron was administered orally to a group of 51 sows individually housed in crates at the rate of 1 mg boron per pound BW per day beginning 1 week prior to farrowing and continuing until the piglets were weaned at 14 days of age. […] Boron treatment was supplied as a single daily dosing and was discontinued at weaning. All sows were fed a standard commercial sow diet."}, "[4]": {"system": "sulfated glycosaminoglycan (sGAG) of cartilage", "test": "Glycosaminoglycan study: sGAG in articular cartilage plugs of fed pigs (Example 2)", "type": "in vivo, pig", "settings": "pigs fed 50 ppm boron; hock and elbow joints; unsupplemented 5045 ng/g; p<0.01", "procedure": "Hock joints and elbow joints were obtained at necropsy from pigs in two feeding groups: one group having been fed a commercial ration supplemented with 50 mg B/kg feed and the other being fed only the standard commercial pig ration.\nCartilage plugs were harvested from the articular surfaces of 40 hock and elbow joints using a #5 (10.5 mm) cork borer. The samples were papain digested and analyzed for concentration of sulfated glycosaminoglycan (sGAG) using a spectrophotometric microplate analysis procedure adapted from Farndale, et al (1986), using a chondrotin sulfate standard. This method measures total sulfated glycosaminoglycan, most of which is chondrotin sulfate and keratan sulfate components of aggrecan. Aggrecan is the large aggregating proteoglycan of cartilage responsible for creating and maintaining the osmotic pressure of cartilage. Quanititation of sGAG concentration thus provides a measure of the weight-bearing and anti-friction properties of cartilage and is a measure of cartilage quality and durability."}, "pigs": {"system": "pigs", "settings": "about 100 pigs, 50 ppm boron as boric acid", "description": "An Iowa farm treated a group of about 100 pigs with 50 ppm boron as boric acid."}, "[5]": {"settings": "sows fed 50 ppm supplemental boron, late gestation and early lactation"}, "[6]": {"settings": "boron 50 ppm in feed, 3-NPB none, 5 pigs"}}, "data": [{"smiles": "[B]", "note": "[boron]", "values": [{"measurement": "Joint findings at necropsy", "setting": "sows and piglets; one pig of about 85 pounds kept on boron 50 ppm plus ascorbate 125 ppm", "result": "No abnormalities were observed"}, {"measurement": "Piglet weight at 12 days of age", "setting": "[1]; pilot study, sows given oral 1 mg boron per kg body weight, non-supplemented 8.0 pounds", "result": 8.5, "unit": "pounds"}, {"measurement": "Pre-weaning mortality", "setting": "[1]; pilot study, sows given oral 1 mg boron per kg body weight, non-supplemented 23%, preliminary, first 600 pigs", "result": 16, "unit": "%"}, {"measurement": "Piglet quality (uniformity, growth, general thrift)", "setting": "[1]; [5]", "result": "improved"}, {"measurement": "Pre-weaning piglet mortality (observation)", "setting": "[1]; [5]", "result": "reduced"}, {"measurement": "Clinical Lameness Score: count of pigs Normal", "setting": "[2]; [6]", "result": 5}, {"measurement": "Clinical Lameness Score: count of pigs with Visible Lameness", "setting": "[2]; [6]", "result": 0}, {"measurement": "Prevalence and severity of osteochondrosis lesions in shoulder, stifle, hock and elbow joints", "setting": "[2]; supplemental boron, no 3-NPB", "result": "lowest prevalence of lesions and the lowest severity"}, {"measurement": "Joint health vs basal diet (FIG. 1)", "setting": "[3]; 25 mg/kg boron as borax vs basal diet", "result": "healthier joints"}, {"measurement": "Growth plate lesions associated with widening, share of tissues", "setting": "[3]; 25 ppm boron in feed (as borax), unsupplemented group 57%", "result": 19, "unit": "%"}, {"measurement": "Articular cartilage lesions (necrosis, hemorrhage, infarction, or streaks), share of tissues", "setting": "[3]; 25 ppm supplemental B in feed, unsupplemented pigs 21%", "result": 4, "unit": "%"}, {"measurement": "TBlue staining intensity of cartilage (semi-quantitative sGAG content)", "setting": "[3]; boron supplemented group vs unsupplemented", "result": "consistently higher"}, {"measurement": "Incidence of osteochondrosis-associated lameness", "setting": "[3]; growing swine, boron supplementation", "result": "effective in reduction"}, {"measurement": "Occurrence of osteochondrosis", "setting": "[3]; pigs, supplemental boron 25 ppm to 50 ppm (FIGS. 1, 3, 4)", "result": "significant reduction"}, {"measurement": "Phosphorus Digestibility (%)", "setting": "crossbred pigs; 50 ppm added B in feed, 28 days, no added B 33.4, p 0.017", "result": 36.3, "unit": "%"}, {"measurement": "Phosphorus excretion in Feces (g/Kg gain)", "setting": "crossbred pigs; 50 ppm added B in feed, 28 days, no added B 88.1, p 0.028", "result": 74.6, "unit": "g/Kg gain"}, {"measurement": "Reduction of phosphorus excretion per unit of production", "setting": "crossbred pigs; boron added to the diet vs no added boron", "result": 15, "unit": "%"}, {"measurement": "Effect on litter size at birth", "setting": "sows and their litters", "result": "no effects"}, {"measurement": "Effect on piglet birth weight", "setting": "sows and their litters", "result": "no effects"}, {"measurement": "Likelihood to conceive relative to control sows", "setting": "sows and their litters; p=0.04", "result": 1.2, "unit": "times"}, {"measurement": "Return to estrus, average days quicker than control sows", "setting": "sows and their litters; p=0.047", "result": 1.6, "unit": "days"}, {"measurement": "sGAG concentration in cartilage (dry matter basis)", "setting": "[4]", "result": 11050, "unit": "ng/g"}]}, {"smiles": "OB(O)O", "note": "[boric acid]", "values": [{"measurement": "Birth to weaning mortality", "setting": "sows and piglets; among a group of 95 piglets, usual mortality of the farm about 5 to 7%", "result": 2, "unit": "piglets"}, {"measurement": "Outcome in three noticeably and seriously lame sows", "setting": "sows and piglets; sows, boron 1 mg/kg body weight as boric acid in diet", "result": "became perfectly sound"}, {"measurement": "Growth rate", "setting": "pigs", "result": "excellent growth rate"}, {"measurement": "Lameness/unsoundness rate", "setting": "pigs; estimated previous rate about 25 to 30%", "result": "zero"}]}]}
